#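 Values below derive from 48-hour exposures of cells grown in 96-well plates, with endpoints linearly interpolated between the two concentrations bracketing the appropriate inhibition level. TGI denotes the concentration required for complete inhibition of growth.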
# Experiments:
# Experiment in all cases: NCI-60 cell line screen, 48 h
# 786-0 renal = tested on: 786-0 renal
# HCC-2998 colon = tested on: HCC-2998 colon
# HCT-15 colon = tested on: HCT-15 colon
# HOP-62 NSCLC = tested on: HOP-62 NSCLC
# M14 melanoma = tested on: M14 melanoma
# MDA-MB-435 = tested on: MDA-MB-435
# NCI-H226 lung = tested on: NCI-H226 lung
# NCI-H23 lung = tested on: NCI-H23 lung
# NCI-H522 lung = tested on: NCI-H522 lung
# NCI/ADR-RES ovarian = tested on: NCI/ADR-RES ovarian
# OVCAR-4 ovarian = tested on: OVCAR-4 ovarian
# RPMI-8226 leukemia = tested on: RPMI-8226 leukemia
# SF-539 CNS = tested on: SF-539 CNS
# SNB-19 CNS = tested on: SNB-19 CNS
# SR leukemia = tested on: SR leukemia
# T-47D breast = tested on: T-47D breast
# A498 renal = tested on: A498 renal
SMILES,TGI (786-0 renal),TGI (HCC-2998 colon),TGI (HCT-15 colon),TGI (HOP-62 NSCLC),TGI (M14 melanoma),TGI (MDA-MB-435),TGI (NCI-H226 lung),TGI (NCI-H23 lung),TGI (NCI-H522 lung),TGI (NCI/ADR-RES ovarian),TGI (OVCAR-4 ovarian),TGI (RPMI-8226 leukemia),TGI (SF-539 CNS),TGI (SNB-19 CNS),TGI (SR leukemia),TGI (T-47D breast),TGI (A498 renal)
O=C(CCNC(=O)OCc1ccccc1)OCCCNC(=O)OCc1ccccc1,> 100 µM,> 100 µM,> 100 µM,> 100 µM,> 100 µM,> 100 µM,> 100 µM,> 100 µM,> 100 µM,> 100 µM,> 100 µM,> 100 µM,> 100 µM,> 100 µM,> 100 µM,> 100 µM,–
CC(=O)NC1C(OCc2ccccc2)OC(CO)C(O)C1OCC(=O)NC(C)C(=O)NC(CCC(=O)OCCNC(=O)c1cccc2cc3ccccc3nc12)C(N)=O (configuration not stated),70.8 µM,40.4 µM,33.6 µM,68.9 µM,42.1 µM,42.4 µM,44.7 µM,48.6 µM,34 µM,68.1 µM,48.7 µM,19.3 µM,–,78.8 µM,45.3 µM,54.6 µM,–
C[C@H](C(=O)N1C(=O)O[C@@H](c2ccccc2)[C@H]1C)[C@H](c1ccccc1)N(Cc1ccccc1)OC(=O)c1ccccc1,> 100 µM,85.3 µM,> 100 µM,52.1 µM,> 100 µM,> 100 µM,> 100 µM,> 100 µM,> 100 µM,> 100 µM,> 100 µM,> 100 µM,> 100 µM,> 100 µM,–,> 100 µM,> 100 µM
COC(=O)C1=C(O)C(C(=O)OC)[C@@]2(O)[C@@H](C(=O)OC)C(c3ccc(OC(=O)/C(=C/c4ccccc4)c4ccccc4)cc3)C[C@@H]1[C@@H]2C(=O)OC (some centres not stated),> 100 µM,–,> 100 µM,> 100 µM,33 µM,> 100 µM,42.6 µM,> 100 µM,> 100 µM,> 100 µM,> 100 µM,–,8.44 µM,> 100 µM,> 100 µM,> 100 µM,96.4 µM
COC(=O)c1ccc(/C=N/c2cc(C)nn2-c2ccccc2)cc1,> 100 µM,8.05 µM,> 100 µM,> 100 µM,> 100 µM,96.6 µM,> 100 µM,> 100 µM,> 100 µM,> 100 µM,> 100 µM,> 100 µM,> 100 µM,> 100 µM,> 100 µM,58 µM,–
Cn1cc(C=C(C#N)C#N)c(=O)n(C)c1=O,> 100 µM,–,> 100 µM,> 100 µM,> 100 µM,> 100 µM,> 100 µM,> 100 µM,> 100 µM,> 100 µM,> 100 µM,> 100 µM,> 100 µM,> 100 µM,–,> 100 µM,> 100 µM
Cc1ccc(-c2n[nH]c(CC#N)n2)cc1,> 100 µM,> 100 µM,> 100 µM,> 100 µM,> 100 µM,> 100 µM,–,> 100 µM,> 100 µM,> 100 µM,> 100 µM,–,> 100 µM,> 100 µM,> 100 µM,> 100 µM,> 100 µM
COC(=O)[C@@H]1C[C@H]2[C@H](c3ccccc3Br)[C@@H](OC(C)=O)[C@@H](OCc3ccccc3)ON2O1,> 100 µM,> 100 µM,> 100 µM,> 100 µM,> 100 µM,> 100 µM,–,> 100 µM,–,> 100 µM,> 100 µM,–,> 100 µM,> 100 µM,> 100 µM,> 100 µM,–
Cc1nnc2nc(-c3ccc(Cl)cc3Cl)cc(-c3ccc(Cl)cc3)n12,> 100 µM,–,> 100 µM,> 100 µM,> 100 µM,> 100 µM,> 100 µM,> 100 µM,–,> 100 µM,39.6 µM,> 100 µM,> 100 µM,> 100 µM,> 100 µM,> 100 µM,–
O=C(c1cccs1)N(C(=S)OCc1ccccn1)c1ccccc1,> 100 µM,–,> 100 µM,–,> 100 µM,> 100 µM,> 100 µM,> 100 µM,–,> 100 µM,–,> 100 µM,> 100 µM,> 100 µM,> 100 µM,> 100 µM,> 100 µM
COC(=O)c1ccccc1C1CN=NC12Cc1c(C)c3c(c(C)c1C2=O)CCC3 (configuration not stated),> 100 µM,> 100 µM,> 100 µM,> 100 µM,> 100 µM,> 100 µM,> 100 µM,> 100 µM,> 100 µM,> 100 µM,> 100 µM,–,> 100 µM,> 100 µM,–,> 100 µM,> 100 µM
CN(C)c1ncc(-c2c[nH]c3ccccc23)nc1-c1c[nH]c2ccccc12,4.07 µM,4.1 µM,16.4 µM,22 µM,3.99 µM,12.1 µM,–,–,–,88.3 µM,17.8 µM,> 100 µM,25.3 µM,14.8 µM,10.8 µM,19.9 µM,4.56 µM
CCOC(=O)C1C(=O)CC(C)(O)C(C(=O)OCC)C1c1ccc(O)c(OC)c1 (configuration not stated),> 100 µM,> 100 µM,> 100 µM,> 100 µM,–,> 100 µM,> 100 µM,> 100 µM,> 100 µM,> 100 µM,> 100 µM,–,–,> 100 µM,> 100 µM,> 100 µM,> 100 µM
O=C1C=CC(=O)c2c(O)c(Nc3ccc(OC(F)(F)F)cc3)c(Cl)c(O)c21,1.26 µM,1.27 µM,1.44 µM,2.57 µM,1.22 µM,2.17 µM,3.44 µM,0.708 µM,2.87 µM,4.57 µM,2.98 µM,0.285 µM,3.36 µM,2.6 µM,–,0.972 µM,9.36 µM
Cn1c2nc(=Nc3ccc(Cl)cc3)n3ccc4ccccc4c3c2c(=O)n1-c1ccccc1,> 100 µM,> 100 µM,> 100 µM,> 100 µM,–,> 100 µM,> 100 µM,> 100 µM,> 100 µM,> 100 µM,> 100 µM,> 100 µM,–,> 100 µM,> 100 µM,> 100 µM,> 100 µM

# — PubChem BioAssay (NCI)
